The target of one assay is T1, JAK2 tyrosine kinase (Homo sapiens, UniProt O60674).
T1 construct: purchased Carnabioscience Co
The experiment in a line: Test 1: inhibitory activity to JAK2 tyrosine kinase (ELISA). Format: biochemical. To be noted: 25 μM ATP in substrate solution, 30° C. for 1 hour, n=2. How it is done: Test 1: Test for inhibitory activity to JAK2 and JAK3 tyrosine kinase 1. Preparation of Test Material
The test material was dissolved in dimethylsulfoxide (DMSO) to be 10 mM, and further diluted with DMSO to be 100-fold concentrations for measurement (1000, 300, 100, 30, 10, 3, 1, 0.3, 0.1, 0.03, 0.01 μM). In addition, solutions diluted with an assay buffer up to 20 times were used as solutions of the test material. As a negative control, a solution of DMSO diluted 20 times with an assay buffer was used. As the assay buffer, 15 mM Tris-Cl (pH 7.5), 0.01 v/v % Tween-20, and 1 mM dithiothreitol were used.
2. Measurement of the Activities of JAK2 and JAK3 Tyrosine Kinases
The activity was determined by ELISA. The solution of the test material (10 μl each; n=2) was placed in a streptavidine-coated 96 well plate (DELFIA Strip Plate 8×12 wells; Perkin Elmer), to which 20 μl each of substrate solution (625 nM biotin-labeled peptide substrate, 25 μM ATP, 25 mM MgCl2, 15 mM Tris-Cl (pH 7.5), 0.01 v/v % Tween-20, and 1 mM dithiothreitol), was added and stirred. Finally, 20 μl each of JAK2 tyrosine kinase (Carnabioscience Co.) (diluted to 0.75 nM with assay buffer) or JAK3 tyrosine kinase (Carnabioscience Co.) (diluted to 0.75 nM with assay buffer) was added, stirred and allowed to stand at 30° C. for 1 hour. The plate was washed 4 times with a washing buffer (50 mM Tris-Cl, pH 7.5, 150 mM NaCl, 0.02 v/v % Tween-20), and then a blocking buffer (0.1% Bovine Serum Albumin, 50 mM Tris-Cl, pH 7.5, 150 mM NaCl, 0.02 v/v % Tween-20)(150 μl each) was added for blocking at 30° C. for 30 minutes. Blocking buffer was removed, and there was added 100 μl each of horse radish peroxidase-labeled anti-phosphorylated tyrosin kinase antibody (BD Bioscience Co.) (diluted 10,000 times with blocking buffer). The plate was incubated at 30° C. for 30 minutes and then washed 4 times with a washing buffer, and 100 μl each of 3,3′,5,5′-tetramethylbenzidine (Sigma-Aldrich Co.) was added to develop color for 10 minutes. 0.1 M sulfuric acid (100 μl each) was added to stop the reaction. The absorbance was measured by means of a micro-plate reader (BIO-RAD; Model 3550) at 450 nm.
3. Analysis of the Results of the Measurement
The measured absorbance was subjected to a non-linear regression analysis by means of a SAS system (SAS Institute Inc.), and the concentration (IC50) of the test material which inhibited 50% of the activity of each tyrosine kinase was estimated.
For orientation: In an ELISA, binding on a coated surface is turned into a signal by an enzyme label.

Another assay has as its target T2, JAK3 tyrosine kinase (Homo sapiens, UniProt P52333).
T2 construct: purchased Carnabioscience Co
T2 sequence (P52333 1-1124): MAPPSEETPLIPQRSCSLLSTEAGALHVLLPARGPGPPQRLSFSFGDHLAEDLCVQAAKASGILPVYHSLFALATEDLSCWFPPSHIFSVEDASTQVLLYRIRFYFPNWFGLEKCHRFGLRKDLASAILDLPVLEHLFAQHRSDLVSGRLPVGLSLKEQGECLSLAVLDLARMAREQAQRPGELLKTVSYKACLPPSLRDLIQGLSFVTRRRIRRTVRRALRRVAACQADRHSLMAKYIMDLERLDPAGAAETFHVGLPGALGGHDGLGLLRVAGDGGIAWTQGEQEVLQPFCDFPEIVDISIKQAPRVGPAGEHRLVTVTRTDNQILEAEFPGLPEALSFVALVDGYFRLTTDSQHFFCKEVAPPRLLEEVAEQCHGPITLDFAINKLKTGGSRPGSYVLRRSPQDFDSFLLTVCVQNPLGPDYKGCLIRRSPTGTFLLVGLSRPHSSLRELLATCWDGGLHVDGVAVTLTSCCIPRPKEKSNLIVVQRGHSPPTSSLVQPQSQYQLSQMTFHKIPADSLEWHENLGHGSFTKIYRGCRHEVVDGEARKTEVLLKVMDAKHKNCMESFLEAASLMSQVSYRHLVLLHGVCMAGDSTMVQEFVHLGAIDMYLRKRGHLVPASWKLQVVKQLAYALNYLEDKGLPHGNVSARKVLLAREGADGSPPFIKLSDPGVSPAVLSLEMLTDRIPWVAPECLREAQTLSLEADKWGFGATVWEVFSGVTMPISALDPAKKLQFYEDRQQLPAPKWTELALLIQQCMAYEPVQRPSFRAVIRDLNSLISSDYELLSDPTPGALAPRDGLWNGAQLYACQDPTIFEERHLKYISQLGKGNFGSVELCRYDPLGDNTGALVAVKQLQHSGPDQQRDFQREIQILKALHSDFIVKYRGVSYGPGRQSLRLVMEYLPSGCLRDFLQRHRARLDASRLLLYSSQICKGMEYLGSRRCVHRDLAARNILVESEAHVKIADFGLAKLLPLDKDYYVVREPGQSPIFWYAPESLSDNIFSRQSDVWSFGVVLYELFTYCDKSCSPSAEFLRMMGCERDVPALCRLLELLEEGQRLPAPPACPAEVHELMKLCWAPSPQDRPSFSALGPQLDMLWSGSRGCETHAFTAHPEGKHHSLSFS
In words: Test 1: inhibitory activity to JAK3 tyrosine kinase (ELISA). Format: biochemical. Conditions: 25 μM ATP in substrate solution, 30° C. for 1 hour, n=2. How it is done:
Test 1: Test for inhibitory activity to JAK2 and JAK3 tyrosine kinase 1. […] The test material was dissolved in dimethylsulfoxide (DMSO) to be 10 mM, and further diluted with DMSO to be 100-fold concentrations for measurement (1000, 300, 100, 30, 10, 3, 1, 0.3, 0.1, 0.03, 0.01 μM). In addition, solutions diluted with an assay buffer up to 20 times were used as solutions of the test material. As a negative control, a solution of DMSO diluted 20 times with an assay buffer was used. […] 2. Measurement of the Activities of JAK2 and JAK3 Tyrosine Kinases The activity was determined by ELISA. […] The absorbance was measured by means of a micro-plate reader (BIO-RAD; Model 3550) at 450 nm. 3. Analysis of the Results of the Measurement The measured absorbance was subjected to a non-linear regression analysis by means of a SAS system (SAS Institute Inc.), and the concentration (IC50) of the test material which inhibited 50% of the activity of each tyrosine kinase was estimated.

Counter-ions that a name gives are not always drawn.

T1 sequence (O60674 whole entry): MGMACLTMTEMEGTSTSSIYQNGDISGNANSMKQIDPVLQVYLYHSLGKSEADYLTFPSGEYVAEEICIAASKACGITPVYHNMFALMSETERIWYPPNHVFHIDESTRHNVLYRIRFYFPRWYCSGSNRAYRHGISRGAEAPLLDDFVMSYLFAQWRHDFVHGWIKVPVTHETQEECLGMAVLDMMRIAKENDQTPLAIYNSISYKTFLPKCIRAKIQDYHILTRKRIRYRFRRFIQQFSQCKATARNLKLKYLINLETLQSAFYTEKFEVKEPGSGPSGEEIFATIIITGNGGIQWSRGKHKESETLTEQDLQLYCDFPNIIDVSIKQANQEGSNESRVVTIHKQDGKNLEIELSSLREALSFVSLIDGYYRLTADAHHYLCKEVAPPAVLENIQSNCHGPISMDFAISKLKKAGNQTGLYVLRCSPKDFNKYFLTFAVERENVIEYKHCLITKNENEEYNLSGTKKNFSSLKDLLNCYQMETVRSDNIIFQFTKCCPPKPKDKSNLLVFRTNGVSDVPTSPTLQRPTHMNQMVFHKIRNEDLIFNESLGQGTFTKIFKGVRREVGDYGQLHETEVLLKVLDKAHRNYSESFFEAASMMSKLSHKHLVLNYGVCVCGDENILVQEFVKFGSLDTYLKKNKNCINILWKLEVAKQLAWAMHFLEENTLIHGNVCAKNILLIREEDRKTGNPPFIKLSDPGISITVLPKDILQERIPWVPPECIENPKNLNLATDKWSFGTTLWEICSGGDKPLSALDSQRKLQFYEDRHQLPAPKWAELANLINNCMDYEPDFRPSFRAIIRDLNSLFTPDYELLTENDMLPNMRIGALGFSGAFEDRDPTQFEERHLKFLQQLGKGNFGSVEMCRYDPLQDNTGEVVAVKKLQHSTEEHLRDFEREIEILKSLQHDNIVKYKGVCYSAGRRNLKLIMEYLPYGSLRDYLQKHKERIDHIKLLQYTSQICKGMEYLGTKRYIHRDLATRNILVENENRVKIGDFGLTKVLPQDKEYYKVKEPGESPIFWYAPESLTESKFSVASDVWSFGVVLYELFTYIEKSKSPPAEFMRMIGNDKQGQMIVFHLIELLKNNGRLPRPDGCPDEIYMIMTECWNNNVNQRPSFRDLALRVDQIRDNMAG

The term IC50 denotes the concentration needed to halve the response being measured. For the compound `C[C@H](Nc1nc(Cl)cc(Nc2cnccn2)n1)c1ccc(F)cc1` [Example 9, (S)-6-Chloro-N^2-[1-(4-fluorophenyl)ethyl]-N^4-(pyrazin-2-yl)pyrimidine-2,4-diamine], the 50% inhibitory concentration (IC50) was determined as 16 nM against JAK2 tyrosine kinase and 360 nM on JAK3 tyrosine kinase.
The matching figures for `C[C@H](Nc1nc(Nc2cnccn2)cc(-c2ccc(S(C)(=O)=O)cc2)n1)c1ccc(F)cc1` [Example 10, (S)—N^2-[1-(4-Fluorophenyl)ethyl]-6-[4-(methylsulfonyl)phenyl]-N^4-(pyrazin-2-yl)pyrimidine-2,4-diamine hydrochloride]: 0.89 nM and 95 nM.
For `C[C@H](Nc1nc(Nc2cnccn2)cc(-c2cn[nH]c2)n1)c1ccc(F)cc1` [Example 11, (S)—N^2-[1-(4-Fluorophenyl)ethyl]-N^4-(pyrazin-2-yl)-6-(1H-pyrazol-4-yl)pyrimidine-2,4-diamine hydrochloride], the IC50 on JAK2 tyrosine kinase was 0.82 nM; against JAK3 tyrosine kinase, 36 nM.
The like results for `C[C@H](Nc1cc(OCCO)cc(Nc2cnccn2)n1)c1ccc(F)cc1` [Example 12, (S)-2-{2-[1-(4-Fluorophenyl)ethylamino]-6-(pyrazin-2-ylamino)pyridin-4-yloxy}ethanol hydrochloride] were, in that order, 0.92 nM and 79 nM.
The matching figures for `C[C@H](Nc1nc(Nc2cnccn2)cc(-c2cccnc2)n1)c1ccc(F)cc1` [Example 13, (S)—N^2-[1-(4-Fluorophenyl)ethyl]-N^4-(pyrazin-2-yl)-6-(pyridin-3-yl)pyrimidine-2,4-diamine]: 1.3 nM and 71 nM.
`C[C@H](Nc1nc(Nc2cnccn2)cc(-c2ccccn2)n1)c1ccc(F)cc1` [Example 14, (S)—N^2-[1-(4-Fluorophenyl)ethyl]-N^4-(pyrazin-2-yl)-6-(pyridin-2-yl)pyrimidine-2,4-diamine]: the figures for the concentration for half-maximal inhibition (IC50) against JAK2 tyrosine kinase and against JAK3 tyrosine kinase were 1.9 nM and 120 nM, respectively.
The like results for `C[C@H](Nc1nc(Nc2cnccn2)cc(-c2ccncc2)n1)c1ccc(F)cc1` [Example 15, (S)—N^2-[1-(4-Fluorophenyl)ethyl]-N^4-(pyrazin-2-yl)-6-(pyridin-4-yl)pyrimidine-2,4-diamine] were, in that order, 1.3 nM and 72 nM.
The matching figures for `C[C@H](Nc1nc(Nc2cnccn2)cc(N2CCCC2=O)n1)c1ccc(F)cc1` [Example 16, (S)-1-{2-[1-(4-Fluorophenyl)ethylamino]-6-(pyrazin-2-ylamino)pyrimidin-4-yl}pyrrolidin-2-one]: 8 nM and 630 nM.
Consider `C[C@H](Nc1nc(Nc2cnccn2)cc(N2CC(=O)NC(=O)C2)n1)c1ccc(F)cc1` [Example 17, (S)-4-{2-[1-(4-Fluorophenyl)ethylamino]-6-(pyrazin-2-ylamino)pyrimidin-4-yl}piperazine-2,6-dione], for which the 50% inhibitory concentration (IC50) against JAK2 tyrosine kinase was 4.4 nM; on JAK3 tyrosine kinase, 340 nM.
The like results for `C[C@H](Nc1nc(Nc2cnccn2)cc(N2CCCNC2=O)n1)c1ccc(F)cc1` [Example 18, (S)-1-{2-[1-(4-Fluorophenyl)ethylamino]-6-(pyrazin-2-ylamino)pyrimidin-4-yl}tetrahydropyrimidin-2(1H)-one] were, in that order, 3 nM and 130 nM.
The like results for `C[C@H](Nc1nc(Nc2cnccn2)cc(N2CCCC2)n1)c1ccc(F)cc1` [Example 19, (S)—N^2-[1-(4-Fluorophenyl)ethyl]-N^4-(pyrazin-2-yl)-6-(pyrrolidin-1-yl)pyrimidine-2,4-diamine] were, in that order, 2.6 nM and 59 nM.
The matching figures for `C[C@H](Nc1nc(Nc2cnccn2)cc(N2CCNC2=O)n1)c1ccc(F)cc1` [Example 21, (S)-1-{2-[1-(4-Fluorophenyl)ethylamino]-6-(pyrazin-2-ylamino)pyrimidin-4-yl}imidazolidin-2-one hydrochloride]: 8.7 nM and 950 nM.
Regarding `C[C@H](Nc1nc(Nc2cnccn2)cc(-c2cnco2)n1)c1ccc(F)cc1` [Example 22, (S)—N^2-[1-(4-Fluorophenyl)ethyl]-6-(oxazol-5-yl)-N^4-(pyrazin-2-yl)pyrimidine-2,4-diamine hydrochloride], the IC50 amounted to 1.6 nM on JAK2 tyrosine kinase and 88 nM against JAK3 tyrosine kinase.
The like results for `COc1ccc(-c2cc(Nc3cnccn3)nc(N[C@@H](C)c3ccc(F)cc3)n2)cn1` [Example 23, (S)—N^2-[1-(4-Fluorophenyl)ethyl]-6-(6-methoxypyridin-3-yl)-N^4-(pyrazin-2-yl)pyrimidine-2,4-diamine hydrochloride] were, in that order, 4.2 nM and 210 nM.
The like results for `C[C@H](Nc1nc(Nc2cnccn2)cc(-c2cc[nH]n2)n1)c1ccc(F)cc1` [Example 24, (S)—N^2-[1-(4-Fluorophenyl)ethyl]-N^4-(pyrazin-2-yl)-6-(1H-pyrazol-3-yl)pyrimidine-2,4-diamine hydrochloride] were, in that order, 1.1 nM and 53 nM.
On to `C[C@H](Nc1nc(Nc2cnccn2)cc(-c2ccnc(O)c2)n1)c1ccc(F)cc1` [Example 25, (S)-4-{2-[1-(4-Fluorophenyl)ethylamino]-6-(pyrazin-2-ylamino)pyrimidin-4-yl}pyridin-2-ol], for which the IC50 against JAK2 tyrosine kinase was 0.97 nM; against JAK3 tyrosine kinase it was 100 nM.
Regarding `C[C@H](Nc1nc(Nc2cnccn2)cc(-c2ccc(O)nc2)n1)c1ccc(F)cc1` [Example 26, (S)-5-{2-[1-(4-Fluorophenyl)ethylamino]-6-(pyrazin-2-ylamino)pyrimidin-4-yl}pyridin-2-ol], the values for the concentration for half-maximal inhibition (IC50) against JAK2 tyrosine kinase and against JAK3 tyrosine kinase were 0.27 nM and 28 nM, respectively.
The matching figures for `C[C@H](Nc1cc(-c2cc[nH]n2)cc(Nc2cnccn2)n1)c1ccc(F)cc1` [Example 29, (S)—N^2-[1-(4-Fluorophenyl)ethyl]-N^6-(pyrazin-2-yl)-4-(1H-pyrazol-3-yl)pyridine-2,6-diamine]: 2 nM and 160 nM.

The values above are taken from patent publication US8586591B2, “Aminopyrazine derivative and medicine” (Nippon Shinyaku Co., Ltd., priority 2009, dated 2013).
